From patent publication US7605175B2, “Inhibitors of cyclin-dependent kinases, compositions and uses related thereto” (GPC Biotech AG, priority 2001, dated 2009) come the findings set out here.

Common to all, as to conditions: Table 6
One test deals with T1, Cdk4/cyclin D1 (Homo sapiens, UniProt P11802).
T1 construct: made in house; host or cells: Sf9 insect cells
Briefly: Biochemical kinase assay Cdk4/cyclin D1. An excerpt: (§1) Enzymes: Cdc2/cyclin B was obtained from commercial sources. Cdk2/his-cyclin Eshort was expressed in Sf9 cells. Cdk2/cyclin A, cdk4/cyclin D1, and cdk6/cyclin D2 were expressed in Sf9 cells. Protein kinase A (catalytic subunit, from bovine heart) and protein kinase C (mixed isozymes from rat brain) were obtained from commercial sources.
(§2) Substrates: Histone H1 was from commercial sources. GST-Rb is glutathione-S-trans-ferase fused to the N-terminal of residues 379-928 of the Rb protein.
(§3) Cdk2/cyclin E, Cdk2/cyclin A, Cdk4/cyclin D1, and Cdk6/cyclin D2 activity was determined using a glutathione-sepharose capture assay. The enzymes were expressed in Sf9 insect cells as heterodimers, and the substrate (GST-Rb) was glutathione-S-transferase fused to residues 379 to 928 of Rb retinoblastoma protein, expressed in E. coli. The assay solution contained 50 mM Tris.HCl, 10 mM MgCl2, 1 mM dithiothreitol, 50 μM adenosine triphosphate, 2 μCi [γ-^33P]adenosine triphosphate, 10% dimethylsulfoxide (from compounds), pH 7.5, 40 μg GST-Rb, and enzyme in a 100 μL volume. Compounds were added at various concentrations between 1 nM and 10 μM. The reaction was allowed to proceed for 15 min at 30° C. and was stopped by the addition of 70 μL of stop solution (237 mM disodium ethylene-diamine tetraacetate, 105 mM adenosine triphosphate, pH 8.0). The GST-Rb was captured by binding to glutathione-sepharose bead (Amersham) for 110 min, and the suspension was filtered through a glass fiber filter. After washing the retained beads five time with phosphate-buffered saline containing 0.3% (w/v) Tween-20, the amount of ^33P incorporated was determined by scintillation counting after adding 100 μL scintillant. Relative activity was determined by dividing the amount of radioactivity incorporated in the presence of compound by the amount of radioactivity incorporated in a control experiment containing DMSO alone but no compound. The background radioactivity, determined in an experiment containing 50 mM disodium ethylenediamine tetraacetate in place of compound, was subtracted from all results before calculations.

The next test deals with T2, Cdc2/cyclin B (Homo sapiens, UniProt P06493).
T2 construct: purchased
T2 sequence (P06493 whole entry, species assumed): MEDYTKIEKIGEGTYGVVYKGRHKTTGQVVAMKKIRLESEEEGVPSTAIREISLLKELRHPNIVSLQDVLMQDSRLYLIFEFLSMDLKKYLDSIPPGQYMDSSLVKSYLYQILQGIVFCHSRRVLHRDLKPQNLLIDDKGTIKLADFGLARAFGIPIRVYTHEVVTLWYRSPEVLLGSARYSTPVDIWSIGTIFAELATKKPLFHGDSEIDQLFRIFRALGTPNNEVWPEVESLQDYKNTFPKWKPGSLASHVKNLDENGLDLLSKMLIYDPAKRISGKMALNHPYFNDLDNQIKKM
T2 sequence (P14635 whole entry partner, species assumed): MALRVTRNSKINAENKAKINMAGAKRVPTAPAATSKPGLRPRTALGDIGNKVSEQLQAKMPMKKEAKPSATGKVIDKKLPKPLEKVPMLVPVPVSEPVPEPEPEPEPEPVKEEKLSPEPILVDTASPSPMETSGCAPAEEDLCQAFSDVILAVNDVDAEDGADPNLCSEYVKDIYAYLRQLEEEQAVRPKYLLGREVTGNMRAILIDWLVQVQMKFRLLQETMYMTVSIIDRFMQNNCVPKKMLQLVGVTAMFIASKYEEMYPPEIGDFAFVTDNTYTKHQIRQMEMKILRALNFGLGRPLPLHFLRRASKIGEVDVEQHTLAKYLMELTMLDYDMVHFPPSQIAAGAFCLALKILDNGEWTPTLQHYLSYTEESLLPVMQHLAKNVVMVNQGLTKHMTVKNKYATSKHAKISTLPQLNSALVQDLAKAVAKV
In words: Biochemical kinase assay Cdc2/cyclin B.
Description: as §1, §2
Assays: Cdc2/cyclinB activity was determined by measuring incorporation of radio-activity from adenosine [γ-^32P]triphosphate into Histone H1 using a TCA precipitation assay. Cdc2/cyclin B kinase and Histone H1 were obtained from commercial sources. The final assay solution contained 50 mM Tris.HCl, 10 mM MgCl2, 1 mM dithiothreitol, 50 μM adenosine triphosphate, 2 μCi ^32P, 10% dimethylsulfoxide (from compounds), pH 7.5, 20 μg Histone H1, 6 U enzyme in a 50 μL volume. Compounds were added at various concentrations between 1 nM and 10 μM. The reaction was started with the addition of enzyme, allowed to proceed for 20 min at 30° C., and stopped by the addition of 20 μL of stop solution (237 mM disodium ethylenediamine tetraacetate, 105 mM adenosine triphosphate, pH 8.0). The protein was precipitated by the addition of 35 μL 70% (w/v) trichloroacetic acid, and the precipitate was captured on a 96-well glass fiber filter plate (Millipore, Inc.), which had been wet with 25% (w/v) trichloroacetic acid. The filter was washed ten times with 25% (w/v) trichloroacetic acid, and the amount of incorporated ^32P was determined by scintillation counting after adding 100 μL scintillant (Microscint 20, Packard Instruments). Relative activity was determined by dividing the amount of radioactivity incorporated in the presence of compound by the amount of radioactivity incorporated in a control experiment containing DMSO alone but no compound. The background radioactivity, determined in an experiment containing 50 mM EDTA in place of compound, was subtracted from all results before calculations.

For a further test, the target named is T3, Cdk2/cyclin E (Homo sapiens, UniProt P24941).
T3 construct: made in house; host or cells: Sf9 insect cells
In words: Biochemical kinase assay Cdk2/cyclin E.
Description: as §1, §2, §3

T1 sequence (P11802 whole entry, species assumed): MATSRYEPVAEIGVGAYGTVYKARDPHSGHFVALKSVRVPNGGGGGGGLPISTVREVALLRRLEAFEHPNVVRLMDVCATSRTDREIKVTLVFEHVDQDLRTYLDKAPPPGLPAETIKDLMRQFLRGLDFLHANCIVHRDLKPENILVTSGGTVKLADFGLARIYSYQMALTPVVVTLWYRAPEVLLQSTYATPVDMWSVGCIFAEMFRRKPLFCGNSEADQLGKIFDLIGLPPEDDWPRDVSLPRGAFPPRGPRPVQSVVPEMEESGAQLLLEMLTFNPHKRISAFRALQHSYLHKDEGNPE
T1 sequence (P24385 whole entry partner, species assumed): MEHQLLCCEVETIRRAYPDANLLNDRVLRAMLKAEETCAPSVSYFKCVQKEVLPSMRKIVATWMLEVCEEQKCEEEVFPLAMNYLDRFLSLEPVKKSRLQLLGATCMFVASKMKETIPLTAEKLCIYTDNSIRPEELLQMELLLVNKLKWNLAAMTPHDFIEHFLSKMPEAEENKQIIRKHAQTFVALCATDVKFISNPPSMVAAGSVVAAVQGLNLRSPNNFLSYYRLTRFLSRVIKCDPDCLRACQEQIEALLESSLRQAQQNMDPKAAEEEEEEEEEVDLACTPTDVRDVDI

For the compound `O=C(Nc1cccc2c1C(=O)c1c-2n[nH]c1-c1ccc(OCCN2CCOCC2)cc1)NN1CCOCC1` [Compound A3], the IC50 against Cdk4/cyclin D1, against Cdc2/cyclin B and at Cdk2/cyclin E was < 0.1 µM throughout.
On to `Cc1cc(OCCN2CCOCC2)ccc1-c1[nH]nc2c1C(=O)c1c(NC(=O)NN3CCN(C)CC3)cccc1-2` [Compound A7], for which the IC50 against Cdk4/cyclin D1, against Cdc2/cyclin B and at Cdk2/cyclin E was < 0.1 µM each time.
With `Cc1cc(OCCN2CCCCC2)ccc1-c1[nH]nc2c1C(=O)c1c(NC(=O)NN3CCN(C)CC3)cccc1-2` [Compound A8], the IC50 on Cdk4/cyclin D1, against Cdc2/cyclin B and on Cdk2/cyclin E was < 0.1 µM in each case.
Turning to `Cc1cc(OCCN2CCCN(C)CC2)ccc1-c1[nH]nc2c1C(=O)c1c(NC(=O)NN3CCN(C)CC3)cccc1-2` [Compound A9], the IC50 against Cdk4/cyclin D1 was < 0.1 µM; on Cdc2/cyclin B, < 0.01 µM; on Cdk2/cyclin E, < 0.1 µM.
As to `O=C(Nc1cccc2c1C(=O)c1c-2n[nH]c1-c1ccc(O)c(CN2CCOCC2)c1)NN1CCOCC1` [Compound A10], the IC50 on Cdk4/cyclin D1 is < 1 µM; against Cdc2/cyclin B, < 0.01 µM; on Cdk2/cyclin E, < 0.1 µM.
`Cc1cc(OCCn2cccn2)ccc1-c1[nH]nc2c1C(=O)c1c(NC(=O)NN3CCN(C)CC3)cccc1-2` [Compound A11]: the half-inhibitory concentration (IC50) against Cdk4/cyclin D1, against Cdc2/cyclin B and against Cdk2/cyclin E was < 0.1 µM each time.
As for `CN1CCN(NC(=O)Nc2cccc3c2C(=O)c2c(-c4ccc(OCCN5CCCC5)cc4F)n[nH]c2-3)CC1` [Compound A12], the IC50 against Cdk4/cyclin D1, against Cdc2/cyclin B and against Cdk2/cyclin E was < 0.1 µM each time.
On to `CN1CCN(CCOc2ccc(-c3n[nH]c4c3C(=O)c3c(NC(=O)NN5CCN(C)CC5)cccc3-4)c(F)c2)CC1` [Compound A13], for which the IC50 against Cdk4/cyclin D1, against Cdc2/cyclin B and on Cdk2/cyclin E was < 0.1 µM in each case.
As for `CN1CCN(NC(=O)Nc2cccc3c2C(=O)c2c(-c4ccc(OCCN5CCCC5)c(F)c4)n[nH]c2-3)CC1` [Compound A14], the IC50 on Cdk4/cyclin D1, against Cdc2/cyclin B and on Cdk2/cyclin E was < 0.1 µM throughout.
Consider `CN1CCN(NC(=O)Nc2cccc3c2C(=O)c2c-3n[nH]c2-c2ccc(O)cc2)CC1` [Compound A15], for which the values for the IC50 on Cdk4/cyclin D1, against Cdc2/cyclin B and on Cdk2/cyclin E were < 0.1 µM, < 0.01 µM and < 0.1 µM, respectively.
`CC(C)N1CCN(CCOc2ccc(-c3n[nH]c4c3C(=O)c3c(NC(=O)NN5CCOCC5)cccc3-4)c(F)c2)CC1` [Compound A16]: the values for the half-maximal inhibitory concentration (IC50) against Cdk4/cyclin D1, against Cdc2/cyclin B and against Cdk2/cyclin E were < 1 µM, < 0.1 µM and < 0.1 µM, respectively.
With `CN1CCN(NC(=O)Nc2cccc3c2C(=O)c2c-3n[nH]c2-c2ccc(OCCn3cccn3)cc2)CC1` [Compound A17], the half-inhibitory concentration (IC50) against Cdk4/cyclin D1 is < 0.1 µM; on Cdc2/cyclin B, < 0.01 µM; on Cdk2/cyclin E it was < 0.1 µM.
On to `Cc1cc(-c2[nH]nc3c2C(=O)c2c(NC(=O)NN4CCN(C)CC4)cccc2-3)ccc1OCCN1CCN(C(C)C)CC1` [Compound A18], for which the IC50 on Cdk4/cyclin D1, against Cdc2/cyclin B and on Cdk2/cyclin E was < 0.1 µM each time.
Turning to `Cc1cc(OCCN2CCN(C(C)C)CC2)ccc1-c1[nH]nc2c1C(=O)c1c(NC(=O)NN3CCN(C)CC3)cccc1-2` [Compound A19], the values for the IC50 on Cdk4/cyclin D1, against Cdc2/cyclin B and against Cdk2/cyclin E were < 1 µM, < 0.1 µM and < 0.1 µM, respectively.
In the case of `CC(C)N1CCN(CCCOc2ccc(-c3[nH]nc4c3C(=O)c3c(NC(=O)NN5CCOCC5)cccc3-4)cc2)CC1` [Compound A20], the IC50 is < 0.1 µM against Cdk4/cyclin D1, < 0.01 µM on Cdc2/cyclin B and < 0.01 µM on Cdk2/cyclin E.
For `Cc1cc(OCCCN2CCN(C(C)C)CC2)ccc1-c1[nH]nc2c1C(=O)c1c(NC(=O)NN3CCOCC3)cccc1-2` [Compound A21], the IC50 against Cdk4/cyclin D1 is < 1 µM; at Cdc2/cyclin B, < 0.1 µM; against Cdk2/cyclin E, < 0.01 µM.
`CC(C)N1CCN(CCOc2ccc(-c3n[nH]c4c3C(=O)c3c(NC(=O)NN5CCOCC5)cccc3-4)cc2F)CC1` [Compound A22]: the IC50 against Cdk4/cyclin D1 was < 0.1 µM; on Cdc2/cyclin B, < 0.1 µM; against Cdk2/cyclin E, < 0.01 µM.
Regarding `CC(C)N1CCN(NC(=O)Nc2cccc3c2C(=O)c2c-3n[nH]c2-c2ccc(OCCN3CCCC3)cc2)CC1` [Compound A23], the IC50 is < 0.1 µM against Cdk4/cyclin D1, < 0.1 µM against Cdc2/cyclin B and < 0.01 µM at Cdk2/cyclin E.
For the compound `O=C(Nc1cccc2c1C(=O)c1c(-c3ccc(CN4CCOCC4)cc3)n[nH]c1-2)NN1CCOCC1` [Compound A47], the IC50 at Cdc2/cyclin B and at Cdk2/cyclin E was < 0.1 µM each time.
Consider `CN1CCN(Cc2ccc(-c3n[nH]c4c3C(=O)c3c(NC(=O)NN5CCOCC5)cccc3-4)cc2)CC1` [Compound A49], for which the IC50 on Cdc2/cyclin B and at Cdk2/cyclin E was < 0.1 µM throughout.
As for `O=C(Nc1cccc2c1C(=O)c1c(-c3ccc(CN4CCCC4)cc3)n[nH]c1-2)NN1CCOCC1` [Compound A51], the IC50 against Cdk2/cyclin E is < 0.1 µM.
`COc1ccc(Cc2nc3c(c(C(C)C)nn3-c3c(Cl)cccc3Cl)c(=O)[nH]2)cc1` [Compound A67]: the IC50 on Cdc2/cyclin B is < 0.1 µM; against Cdk2/cyclin E, < 0.01 µM.
Taken in the same sequence, the figures for `O=C(Nc1cccc2c1C(=O)c1c(-c3ccc(OCc4nnn[nH]4)cc3)n[nH]c1-2)NN1CCOCC1` [Compound A74] were < 0.1 µM and < 0.1 µM.
`O=C(Nc1cccc2c1C(=O)c1c(-c3ccc(CN4CCN(c5ccccn5)CC4)cc3)n[nH]c1-2)NN1CCOCC1` [Compound A82]: at Cdk2/cyclin E, the IC50 is < 0.1 µM.
As for `O=C(Nc1cccc2c1C(=O)c1c(-c3ccc(CNC(CO)CO)cc3)n[nH]c1-2)NN1CCOCC1` [Compound B1], the IC50 against Cdk2/cyclin E was < 0.01 µM.
As for `O=C(Nc1cccc2c1C(=O)c1c(-c3ccc(CN(CCO)CCO)cc3)n[nH]c1-2)NN1CCOCC1` [Compound B2], the IC50 at Cdc2/cyclin B was < 0.01 µM; against Cdk2/cyclin E it was < 0.1 µM.
On to `O=C(Nc1cccc2c1C(=O)c1c(-c3ccc(CN4CCN(CCO)CC4)cc3)n[nH]c1-2)NN1CCOCC1` [Compound B3], for which the IC50 is < 0.01 µM against Cdc2/cyclin B and < 0.1 µM against Cdk2/cyclin E.
As to `O=C(Nc1cccc2c1C(=O)c1c(-c3ccc(CNCCOCCO)cc3)n[nH]c1-2)NN1CCOCC1` [Compound B4], the IC50 against Cdk2/cyclin E was < 0.1 µM.
For `O=C(Nc1cccc2c1C(=O)c1c(-c3ccc(CN4CCC(O)CC4)cc3)n[nH]c1-2)NN1CCOCC1` [Compound B5], at Cdk2/cyclin E, the IC50 was < 0.1 µM.
On the same count and under the same terms, the same measure for `O=C(Nc1cccc2c1C(=O)c1c(-c3ccc(CN4CCC[C@H]4CO)cc3)n[nH]c1-2)NN1CCOCC1` [Compound B6]: < 0.1 µM; for `O=C(Nc1cccc2c1C(=O)c1c(-c3ccc(CN4CCN(c5cccc(C(F)(F)F)c5)CC4)cc3)n[nH]c1-2)NN1CCOCC1` [Compound B7]: < 0.1 µM.
`O=C(Nc1cccc2c1C(=O)c1c(-c3ccc(CN4CC[C@@H](O)C4)cc3)n[nH]c1-2)NN1CCOCC1` [Compound B8]: the IC50 against Cdc2/cyclin B is < 0.1 µM.
For the compound `CCOC(=O)C1CCN(Cc2ccc(-c3n[nH]c4c3C(=O)c3c(NC(=O)NN5CCOCC5)cccc3-4)cc2)CC1` [Compound B9], on Cdc2/cyclin B, the IC50 is < 0.1 µM.
Regarding `O=C(Nc1cccc2c1C(=O)c1c(-c3ccc(CNCCO)cc3)n[nH]c1-2)NN1CCOCC1` [Compound B10], the half-inhibitory concentration (IC50) at Cdc2/cyclin B was < 0.1 µM.
As to `O=C(Nc1cccc2c1C(=O)c1c(-c3ccc(CNCC(O)CO)cc3)n[nH]c1-2)NN1CCOCC1` (stereo not shown) [Compound B11], the IC50 at Cdc2/cyclin B is < 0.1 µM.
With `O=C(Nc1cccc2c1C(=O)c1c(-c3ccc(CNCc4cccnc4)cc3)n[nH]c1-2)NN1CCOCC1` [Compound B12], the IC50 on Cdc2/cyclin B is < 0.1 µM.
Take `O=C(Nc1cccc2c1C(=O)c1c(-c3ccc(CNCc4ccccn4)cc3)n[nH]c1-2)NN1CCOCC1` [Compound B13]: the IC50 against Cdc2/cyclin B is < 0.1 µM.
